Test results published in patent US20230085307A1, “PYRIDAZINONE COMPOUND AND HERBICIDE” (NISSAN CHEMICAL CORPORATION, priority 2019, published 2023).

Tested on: chickweed
Assay: Test Example 5: herbicidal effect by foliage application, plastic box (Table 20, symbol P)
Format: in vivo, common chickweed (Stellaria media)
Settings: foliage application, 320 g/ha, evaluated three weeks after application
Procedure, shortened: (§1)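 Foliar spray test: emulsion formulation diluted in water to a set application rate, sprayed onto 14-day-old plants raised in diluvial soil at 25° C to 30° C under glass. Both herbicidal effect and crop effect rated visually three weeks later.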

SMILES | herbicidal effect on P: chickweed
CON=C(C)c1ccc(-c2sc3ccc(F)cc3c2-c2c(O)c(C)nn(C)c2=O)cc1 [2-079] | 5 (Herbicidal rate of 90% or more (almost completely withered))
CCCC(=O)Oc1c(C)nn(C)c(=O)c1-c1c(-c2ccc(C(C)=NOC)cc2)sc2ccc(F)cc12 [2-080] | 5 (Herbicidal rate of 90% or more (almost completely withered))

Tested on: barnyard grass
Assay: Test Example 5: herbicidal effect by foliage application, plastic box (Table 20, symbol H)
Format: in vivo, barnyard grass (Echinochloa crus-galli)
Settings: foliage application, 320 g/ha, evaluated three weeks after application
Procedure, shortened: as §1

SMILES | herbicidal effect on H: barnyard grass
CON=C(C)c1ccc(-c2sc3ccc(F)cc3c2-c2c(O)c(C)nn(C)c2=O)cc1 [2-079] | 5 (Herbicidal rate of 90% or more (almost completely withered))
CCCC(=O)Oc1c(C)nn(C)c(=O)c1-c1c(-c2ccc(C(C)=NOC)cc2)sc2ccc(F)cc12 [2-080] | 5 (Herbicidal rate of 90% or more (almost completely withered))

Tested on: chickweed
Assay: Test Example 4: herbicidal effect by soil treatment (Table 19, symbol P)
Format: in vivo, common chickweed (Stellaria media)
Settings: 320 g/ha
Procedure, shortened: (§2)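 Herbicidal effect was rated 3 weeks after treatment, using the scoring criteria of an earlier test. The compound, formulated as an emulsion and diluted in water to a set herbicide amount, had been sprayed uniformly on soil over freshly sown seeds. Growth took place in a greenhouse at 25° C. to 30° C.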

SMILES | herbicidal effect rating, P: chickweed
CON=C(C)c1ccc(-c2sc3ccc(F)cc3c2-c2c(O)c(C)nn(C)c2=O)cc1 [2-079] | 2 (Herbicidal rate of 20% or more and less than 40%)
CCCC(=O)Oc1c(C)nn(C)c(=O)c1-c1c(-c2ccc(C(C)=NOC)cc2)sc2ccc(F)cc12 [2-080] | 3 (Herbicidal rate of 40% or more and less than 70%)

Tested on: green foxtail
Assay: Test Example 5: herbicidal effect by foliage application, plastic box (Table 20, symbol G)
Format: in vivo, green foxtail (Setaria viridis)
Settings: foliage application, 320 g/ha, evaluated three weeks after application
Procedure, shortened: as §1

SMILES | herbicidal effect on G: green foxtail
CON=C(C)c1ccc(-c2sc3ccc(F)cc3c2-c2c(O)c(C)nn(C)c2=O)cc1 [2-079] | 5 (Herbicidal rate of 90% or more (almost completely withered))
CCCC(=O)Oc1c(C)nn(C)c(=O)c1-c1c(-c2ccc(C(C)=NOC)cc2)sc2ccc(F)cc12 [2-080] | 4 (Herbicidal rate of 70% or more and less than 90%)

Tested on: persian speedwell
Assay: Test Example 5: herbicidal effect by foliage application, plastic box (Table 20, symbol R)
Format: in vivo, Persian speedwell (Veronica persica)
Settings: foliage application, 320 g/ha, evaluated three weeks after application
Procedure, shortened: as §1

SMILES | herbicidal effect on R: persian speedwell
CON=C(C)c1ccc(-c2sc3ccc(F)cc3c2-c2c(O)c(C)nn(C)c2=O)cc1 [2-079] | 5 (Herbicidal rate of 90% or more (almost completely withered))
CCCC(=O)Oc1c(C)nn(C)c(=O)c1-c1c(-c2ccc(C(C)=NOC)cc2)sc2ccc(F)cc12 [2-080] | 5 (Herbicidal rate of 90% or more (almost completely withered))

Tested on: redroot pigweed
Assay: Test Example 4: herbicidal effect by soil treatment (Table 19, symbol N)
Format: in vivo, redroot pigweed (Amaranthus retroflexus)
Settings: 320 g/ha
Procedure, shortened: as §2

SMILES | herbicidal effect rating, N: redroot pigweed
CON=C(C)c1ccc(-c2sc3ccc(F)cc3c2-c2c(O)c(C)nn(C)c2=O)cc1 [2-079] | 5 (Herbicidal rate of 90% or more (almost completely withered))
CCCC(=O)Oc1c(C)nn(C)c(=O)c1-c1c(-c2ccc(C(C)=NOC)cc2)sc2ccc(F)cc12 [2-080] | 5 (Herbicidal rate of 90% or more (almost completely withered))

Tested on: southern crabgrass
Assay: Test Example 5: herbicidal effect by foliage application, plastic box (Table 20, symbol F)
Format: in vivo, southern crabgrass (Digitaria ciliaris)
Settings: foliage application, 320 g/ha, evaluated three weeks after application
Procedure, shortened: as §1

SMILES | herbicidal effect on F: southern crabgrass
CON=C(C)c1ccc(-c2sc3ccc(F)cc3c2-c2c(O)c(C)nn(C)c2=O)cc1 [2-079] | 5 (Herbicidal rate of 90% or more (almost completely withered))
CCCC(=O)Oc1c(C)nn(C)c(=O)c1-c1c(-c2ccc(C(C)=NOC)cc2)sc2ccc(F)cc12 [2-080] | 5 (Herbicidal rate of 90% or more (almost completely withered))

Tested on: oval-leafed pondweed
Assay: Test Example 1: herbicidal activity, application before weed generation under submerged conditions (Table 16, symbol C)
Format: in vivo, oval-leafed pondweed (Monochoria vaginalis)
Settings: 320 g/ha applied herbicide
Procedure, shortened: (§3)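 Emulsion formulation, water-diluted to set dose, was put onto the flooded surface (4 cm depth, alluvial soil) the same day weeds were sown and 2.5-leaf rice transplanted. After 3 weeks at 25-30 °C under glass, each species was rated 0 (≤5% kill) to 5 (≥90% kill).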

SMILES | Herbicidal effect on C: oval-leafed pondweed (grade 0-5)
CON=C(C)c1ccc(-c2sc3ccc(F)cc3c2-c2c(O)c(C)nn(C)c2=O)cc1 [2-079] | 1 (Herbicidal rate of 5% or more and less than 20%)
CCCC(=O)Oc1c(C)nn(C)c(=O)c1-c1c(-c2ccc(C(C)=NOC)cc2)sc2ccc(F)cc12 [2-080] | 4 (Herbicidal rate of 70% or more and less than 90%)

Tested on: oval-leafed pondweed
Assay: Test Example 2: herbicidal activity, application during weed generation under submerged conditions (Table 17, symbol C)
Format: in vivo, oval-leafed pondweed (Monochoria vaginalis)
Settings: AAH 320 g/ha; application during weed generation, submerged conditions
Procedure, shortened: (§4)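 Herbicide emulsion, diluted with water to the chosen amount, is applied onto 4 cm floodwater over alluvial soil where the weeds were co-sown and raised at 25–30° C. Application timing: 1–2 leaves. Assessment: three weeks afterwards.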

SMILES | herbicidal effect rating, C: oval-leafed pondweed
CON=C(C)c1ccc(-c2sc3ccc(F)cc3c2-c2c(O)c(C)nn(C)c2=O)cc1 [2-079] | 2 (Herbicidal rate of 20% or more and less than 40%)
CCCC(=O)Oc1c(C)nn(C)c(=O)c1-c1c(-c2ccc(C(C)=NOC)cc2)sc2ccc(F)cc12 [2-080] | 4 (Herbicidal rate of 70% or more and less than 90%)

Tested on: Japanese bulrush
Assay: Test Example 1: herbicidal activity, application before weed generation under submerged conditions (Table 16, symbol B)
Format: in vivo, Japanese bulrush (Schoenoplectus juncoides)
Settings: 320 g/ha applied herbicide
Procedure, shortened: as §3

SMILES | Herbicidal effect on B: Japanese bulrush (grade 0-5)
CON=C(C)c1ccc(-c2sc3ccc(F)cc3c2-c2c(O)c(C)nn(C)c2=O)cc1 [2-079] | 3 (Herbicidal rate of 40% or more and less than 70%)
CCCC(=O)Oc1c(C)nn(C)c(=O)c1-c1c(-c2ccc(C(C)=NOC)cc2)sc2ccc(F)cc12 [2-080] | 5 (Herbicidal rate of 90% or more (almost completely withered))

Tested on: windgrass
Assay: Test Example 5: herbicidal effect by foliage application, plastic box (Table 20, symbol L)
Format: in vivo, windgrass (Apera spica-venti)
Settings: foliage application, 320 g/ha, evaluated three weeks after application
Procedure, shortened: as §1

SMILES | herbicidal effect on L: windgrass
CON=C(C)c1ccc(-c2sc3ccc(F)cc3c2-c2c(O)c(C)nn(C)c2=O)cc1 [2-079] | 5 (Herbicidal rate of 90% or more (almost completely withered))
CCCC(=O)Oc1c(C)nn(C)c(=O)c1-c1c(-c2ccc(C(C)=NOC)cc2)sc2ccc(F)cc12 [2-080] | 5 (Herbicidal rate of 90% or more (almost completely withered))

Tested on: green foxtail
Assay: Test Example 4: herbicidal effect by soil treatment (Table 19, symbol G)
Format: in vivo, green foxtail (Setaria viridis)
Settings: 320 g/ha
Procedure, shortened: as §2

SMILES | herbicidal effect rating, G: green foxtail
CON=C(C)c1ccc(-c2sc3ccc(F)cc3c2-c2c(O)c(C)nn(C)c2=O)cc1 [2-079] | 5 (Herbicidal rate of 90% or more (almost completely withered))
CCCC(=O)Oc1c(C)nn(C)c(=O)c1-c1c(-c2ccc(C(C)=NOC)cc2)sc2ccc(F)cc12 [2-080] | 1 (Herbicidal rate of 5% or more and less than 20%)

Tested on: barnyard grass
Assay: Test Example 4: herbicidal effect by soil treatment (Table 19, symbol H)
Format: in vivo, barnyard grass (Echinochloa crus-galli)
Settings: 320 g/ha
Procedure, shortened: as §2

SMILES | herbicidal effect rating, H: barnyard grass
CON=C(C)c1ccc(-c2sc3ccc(F)cc3c2-c2c(O)c(C)nn(C)c2=O)cc1 [2-079] | 4 (Herbicidal rate of 70% or more and less than 90%)
CCCC(=O)Oc1c(C)nn(C)c(=O)c1-c1c(-c2ccc(C(C)=NOC)cc2)sc2ccc(F)cc12 [2-080] | 2 (Herbicidal rate of 20% or more and less than 40%)

Tested on: wild oat
Assay: Test Example 5: herbicidal effect by foliage application, plastic box (Table 20, symbol I)
Format: in vivo, wild oat (Avena fatua)
Settings: foliage application, 320 g/ha, evaluated three weeks after application
Procedure, shortened: as §1

SMILES | herbicidal effect on I: wild oat
CON=C(C)c1ccc(-c2sc3ccc(F)cc3c2-c2c(O)c(C)nn(C)c2=O)cc1 [2-079] | 5 (Herbicidal rate of 90% or more (almost completely withered))
CCCC(=O)Oc1c(C)nn(C)c(=O)c1-c1c(-c2ccc(C(C)=NOC)cc2)sc2ccc(F)cc12 [2-080] | 5 (Herbicidal rate of 90% or more (almost completely withered))

Tested on: wild oat
Assay: Test Example 4: herbicidal effect by soil treatment (Table 19, symbol I)
Format: in vivo, wild oat (Avena fatua)
Settings: 320 g/ha
Procedure, shortened: as §2

SMILES | herbicidal effect rating, I: wild oat
CON=C(C)c1ccc(-c2sc3ccc(F)cc3c2-c2c(O)c(C)nn(C)c2=O)cc1 [2-079] | 0 (Herbicidal rate of 5% or less (almost no effect))
CCCC(=O)Oc1c(C)nn(C)c(=O)c1-c1c(-c2ccc(C(C)=NOC)cc2)sc2ccc(F)cc12 [2-080] | 0 (Herbicidal rate of 5% or less (almost no effect))

Tested on: Japanese bulrush
Assay: Test Example 2: herbicidal activity, application during weed generation under submerged conditions (Table 17, symbol B)
Format: in vivo, Japanese bulrush (Schoenoplectus juncoides)
Settings: AAH 320 g/ha; application during weed generation, submerged conditions
Procedure, shortened: as §4

SMILES | herbicidal effect rating, B: Japanese bulrush
CON=C(C)c1ccc(-c2sc3ccc(F)cc3c2-c2c(O)c(C)nn(C)c2=O)cc1 [2-079] | 0 (Herbicidal rate of 5% or less (almost no effect))
CCCC(=O)Oc1c(C)nn(C)c(=O)c1-c1c(-c2ccc(C(C)=NOC)cc2)sc2ccc(F)cc12 [2-080] | 4 (Herbicidal rate of 70% or more and less than 90%)
